# According to patent publication US20240190855A1 (Relay Therapeutics, Inc., priority 2021, published 2024):
# Target: T1, CDK2/Cyclin E complex (Homo sapiens, UniProt P24941)
# T1 construct: purchased Eurofins 14-475
# Test: CDK2/Cyclin E fluorescence-based microfluidic mobility shift assay (CDK2 Biochemical Caliper Assay)
# Conditions: read-out: Biochemical CDK2/CyclinE Caliper IC50
# How it was run: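 Wild-type CDK2/Cyclin E was preincubated with compound and ATP for 30 min at RT before the 5-FAM-QSPKKG peptide was added. Final concentrations were 0.1 nM enzyme, 2000 uM ATP, 1.5 uM peptide and 1% DMSO. After 20 hr at RT and EDTA stop, substrate conversion was read by microfluidic mobility shift over an 11-point, 3-fold dilution series.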
row,Structure (SMILES),IC50
1,Cc1cc(CC(=O)Nc2cc([C@H]3C[C@@H](COc4nscc4C4CC4)C3)[nH]n2)on1 [Example 368],≤ 100 nM
2,Cc1cc(CC(=O)Nc2cc([C@H]3C[C@H](COc4nscc4C4CC4)C3)[nH]n2)on1 [Example 369],1000 to 100000 nM
3,Cc1ccc(O[C@@H]2CC[C@H](c3cc(NC(=O)Cc4cc(C)no4)n[nH]3)C2)nn1 [Example 397],250 to 1000 nM
4,Cc1cc(CC(=O)Nc2cc([C@H]3C[C@@H](Oc4nnccc4C(C)C)CO3)[nH]n2)on1 [Example 406],≤ 100 nM
5,Cc1cc(CC(=O)Nc2cc([C@@H]3C[C@H](Oc4nnccc4C(C)C)CO3)[nH]n2)on1 [Example 407],≤ 100 nM
6,CC(C)c1ccnnc1O[C@H]1CC[C@@H](c2cc(Nc3nccc4ncsc34)n[nH]2)CC1 [Example 412],≤ 100 nM
7,Cc1cc(CC(=O)Nc2cc(C3CCCN3)[nH]n2)on1 (stereo not drawn) [Example 416],1000 to 100000 nM
8,CC(C)NC(=O)O[C@@H]1CC[C@H](c2cc(Nc3ncnc4ncsc34)n[nH]2)C1 [Example 425],≤ 100 nM
9,CC(C)NC(=O)O[C@H]1CC[C@@H](c2cc(Nc3ncnc4ncsc34)n[nH]2)C1 [Example 426],≤ 100 nM
10,COCc1cc(C(=O)Nc2cc([C@H]3C[C@@H](COc4nnccc4C(C)C)C3)[nH]n2)n(C)n1 [Example 429],≤ 100 nM
11,COCc1cc(C(=O)Nc2cc([C@H]3C[C@H](COc4nnccc4C(C)C)C3)[nH]n2)n(C)n1 [Example 430],1000 to 100000 nM
12,Cc1cc(CC(=O)Nc2cc([C@H]3C[C@@H](COc4nnccc4C(C)C)C3)[nH]n2)on1 [Example 431],≤ 100 nM
13,Cc1cc(CC(=O)Nc2cc([C@H]3C[C@H](COc4nnccc4C(C)C)C3)[nH]n2)on1 [Example 432],100 to 250 nM
14,CC(C)NC(=O)O[C@H]1CO[C@@H](c2cc(Nc3nccc4ncsc34)n[nH]2)C1 [Example 433],≤ 100 nM
15,CC(C)NC(=O)O[C@@H]1CO[C@H](c2cc(Nc3nccc4ncsc34)n[nH]2)C1 [Example 434],100 to 250 nM
16,CC(C)c1ccnnc1O[C@H]1C[C@@H](c2cc(Nc3nccc4ncsc34)n[nH]2)C1 [Example 435],≤ 100 nM
17,CC(C)c1ccnnc1O[C@@H]1CC[C@H](c2cc(Nc3nccc4ncsc34)n[nH]2)C1 [Example 436],≤ 100 nM
18,CC(C)c1ccnnc1O[C@H]1CC[C@@H](c2cc(Nc3nccc4ncsc34)n[nH]2)C1 [Example 437],≤ 100 nM
19,CC(C)c1ccnnc1OC[C@H]1C[C@@H](c2cc(Nc3nccc4ncsc34)n[nH]2)C1 [Example 438],≤ 100 nM
20,CC(C)c1ccnnc1OC[C@H]1C[C@H](c2cc(Nc3nccc4ncsc34)n[nH]2)C1 [Example 439],1000 to 100000 nM
21,COCc1cc(C(=O)Nc2cc([C@H]3C[C@@H](COc4nscc4C4CC4)C3)[nH]n2)n(C)n1 [Example 454],≤ 100 nM
22,COCc1cc(C(=O)Nc2cc([C@H]3C[C@H](COc4nscc4C4CC4)C3)[nH]n2)n(C)n1 [Example 455],1000 to 100000 nM
23,CC(C)NC(=O)OC[C@H]1C[C@@H](c2cc(Nc3nccc4ncsc34)n[nH]2)C1 [Example 456],≤ 100 nM
24,CC(C)NC(=O)OC[C@H]1C[C@H](c2cc(Nc3nccc4ncsc34)n[nH]2)C1 [Example 457],250 to 1000 nM

row,Structure (SMILES),IC50
1,COCc1cc(C(=O)Nc2cc([C@H]3C[C@@H](Oc4nnccc4C(C)C)CO3)[nH]n2)n(C)n1 [Example 458],≤ 100 nM
2,COCc1cc(C(=O)Nc2cc([C@@H]3C[C@H](Oc4nnccc4C(C)C)CO3)[nH]n2)n(C)n1 [Example 459],≤ 100 nM
3,COCc1cc(C(=O)Nc2cc([C@H]3C[C@@H](COC(=O)NC(C)C)C3)[nH]n2)n(C)n1 [Example 460],≤ 100 nM
4,COCc1cc(C(=O)Nc2cc([C@H]3C[C@H](COC(=O)NC(C)C)C3)[nH]n2)n(C)n1 [Example 461],1000 to 100000 nM
5,CC(C)c1ccnnc1O[C@H]1CO[C@@H](c2cc(Nc3nccn4nccc34)n[nH]2)C1 [Example 464],≤ 100 nM
6,CC(C)c1ccnnc1O[C@@H]1CO[C@H](c2cc(Nc3nccn4nccc34)n[nH]2)C1 [Example 465],≤ 100 nM
7,CC(C)c1ccnnc1OC[C@H]1C[C@@H](c2cc(Nc3nccn4nccc34)n[nH]2)C1 [Example 488],≤ 100 nM
8,CC(C)c1ccnnc1OC[C@H]1C[C@H](c2cc(Nc3nccn4nccc34)n[nH]2)C1 [Example 489],250 to 1000 nM
9,COCc1cc2c(Nc3cc([C@H]4C[C@@H](Oc5nnccc5C(C)C)CO4)[nH]n3)nccn2n1 [Example 496],≤ 100 nM
10,COCc1cc2c(Nc3cc([C@@H]4C[C@H](Oc5nnccc5C(C)C)CO4)[nH]n3)nccn2n1 [Example 497],≤ 100 nM
11,Cc1ncccc1OC[C@H]1C[C@@H](c2cc(Nc3nccn4nccc34)n[nH]2)C1 [Example 513],100 to 250 nM
12,Cc1ncccc1OC[C@H]1C[C@H](c2cc(Nc3nccn4nccc34)n[nH]2)C1 [Example 514],1000 to 100000 nM
13,COCc1cc(C(=O)Nc2cc([C@H]3C[C@]4(CN(CC(C)C)C(=O)N4)C3)[nH]n2)n(C)n1 [Example 515],1000 to 100000 nM
14,COCc1cc(C(=O)Nc2cc([C@H]3C[C@@]4(CN(CC(C)C)C(=O)N4)C3)[nH]n2)n(C)n1 [Example 516],250 to 1000 nM
15,COCc1cc2c(Nc3cc([C@H]4C[C@@H](COc5nnccc5C(C)C)C4)[nH]n3)nccn2n1 [Example 519],≤ 100 nM
16,COCc1cc2c(Nc3cc([C@H]4C[C@H](COc5nnccc5C(C)C)C4)[nH]n3)nccn2n1 [Example 520],1000 to 100000 nM
17,Cc1ncccc1O[C@@H]1CO[C@H](c2cc(Nc3nccn4nccc34)n[nH]2)C1 [Example 521],1000 to 100000 nM
18,Cc1ncccc1O[C@H]1CO[C@@H](c2cc(Nc3nccn4nccc34)n[nH]2)C1 [Example 522],250 to 1000 nM
19,CC(C)c1ccnnc1O[C@H]1CO[C@@H](c2cc(Nc3nccc4ncsc34)n[nH]2)C1 [Example 523],≤ 100 nM
20,CC(C)c1ccnnc1O[C@@H]1CO[C@H](c2cc(Nc3nccc4ncsc34)n[nH]2)C1 [Example 524],≤ 100 nM
21,COCc1cc(C(=O)Nc2cc([C@H]3C[C@@](C)(CC(=O)NC(C)C)C3)[nH]n2)n(C)n1 [Example 532],1000 to 100000 nM
22,COCc1cc(C(=O)Nc2cc([C@H]3C[C@](C)(CC(=O)NC(C)C)C3)[nH]n2)n(C)n1 [Example 533],1000 to 100000 nM
23,c1cncc(OC[C@H]2C[C@@H](c3cc(Nc4nccn5nccc45)n[nH]3)C2)c1 [Example 536],≤ 100 nM
24,c1cncc(OC[C@H]2C[C@H](c3cc(Nc4nccn5nccc45)n[nH]3)C2)c1 [Example 537],1000 to 100000 nM

row,Structure (SMILES),IC50
1,COCc1cc(C(=O)Nc2cc([C@H]3C[C@@H]4[C@H](C3)[C@H]4C(=O)N(C)C)[nH]n2)n(C)n1 [Example 540],1000 to 100000 nM
2,COCc1cc(C(=O)Nc2cc([C@H]3C[C@]4(C3)NC(=O)N(CC(C)C)C4=O)n[nH]2)n(C)n1 [Example 541],1000 to 100000 nM
3,COCc1cc2c(Nc3cc([C@H]4C[C@@H](OC(=O)NC(C)C)CO4)[nH]n3)nccn2n1 [Example 544],≤ 100 nM
4,COCc1cc2c(Nc3cc([C@@H]4C[C@H](OC(=O)NC(C)C)CO4)[nH]n3)nccn2n1 [Example 545],≤ 100 nM
5,COCc1cc(C(=O)Nc2cc(N3CC(COC(=O)NC(C)C)C3)[nH]n2)n(C)n1 [Example 558],1000 to 100000 nM
6,COCc1cc2c(Nc3cc([C@H]4C[C@H](COC(=O)NC(C)C)C4)[nH]n3)nccn2n1 [Example 560],100 to 250 nM
7,COCc1cc(C(=O)Nc2cc([C@H]3C[C@@H](COc4cccnc4)C3)[nH]n2)n(C)n1 [Example 561],1000 to 100000 nM
8,COCc1cc(C(=O)Nc2cc([C@H]3C[C@H](COc4cccnc4)C3)[nH]n2)n(C)n1 [Example 562],1000 to 100000 nM
9,CC(C)c1[nH]ncc1OC[C@H]1C[C@@H](c2cc(Nc3nccn4nccc34)n[nH]2)C1 [Example 582],≤ 100 nM
10,CC(C)c1[nH]ncc1OC[C@H]1C[C@H](c2cc(Nc3nccn4nccc34)n[nH]2)C1 [Example 583],1000 to 100000 nM
11,COCc1cc2c(Nc3cc([C@H]4C[C@@H](COc5cccnc5)C4)[nH]n3)nccn2n1 [Example 586],250 to 1000 nM
12,COCc1cc(C(=O)Nc2cc([C@H]3C[C@@H](COc4cn[nH]c4C(C)C)C3)[nH]n2)n(C)n1 [Example 587],100 to 250 nM
13,COCc1cc2c(Nc3cc([C@H]4C[C@@H](COc5cn[nH]c5C(C)C)C4)[nH]n3)nccn2n1 [Example 588],≤ 100 nM
14,CC(C)NC(=O)OC[C@H]1C[C@@H](c2cc(Nc3ccc4c(n3)C(C)(C)NC4=O)n[nH]2)C1 [Example 589],≤ 100 nM
15,COCc1cc2c(Nc3cc([C@H]4C[C@@H](OC(=O)NC5(C)CC5)CO4)[nH]n3)nccn2n1 [Example 619],≤ 100 nM
16,COCc1cc2c(Nc3cc([C@@H]4C[C@H](OC(=O)NC5(C)CC5)CO4)[nH]n3)nccn2n1 [Example 620],≤ 100 nM
17,COCc1cc2c(Nc3cc([C@H]4C[C@@H](COC(=O)N5[C@@H](C)CC[C@@H]5C)C4)[nH]n3)nccn2n1 [Example 621],≤ 100 nM
18,COCc1cc(C(=O)Nc2cc([C@H]3C[C@@H](COc4cn[nH]c4C(C)(C)C)C3)[nH]n2)n(C)n1 [Example 622],≤ 100 nM
19,COCc1cc(C(=O)Nc2cc([C@H]3C[C@@H](COc4cn(C)nc4C(C)C)C3)[nH]n2)n(C)n1 [Example 623],100 to 250 nM
20,CCOCc1cc(C(=O)Nc2cc([C@H]3C[C@@H](COC(=O)NC(C)C)C3)[nH]n2)n(C)n1 [Example 624],≤ 100 nM
21,CCOCc1cc(C(=O)Nc2cc([C@H]3C[C@H](COC(=O)NC(C)C)C3)[nH]n2)n(C)n1 [Example 625],1000 to 100000 nM
22,COCc1cc(C(=O)Nc2cc([C@H]3CC[C@@H](OC(=O)NC(C)C)CC3)[nH]n2)n(C)n1 [Example 626],250 to 1000 nM
23,COCc1cc(C(=O)Nc2cc([C@H]3CC[C@@H](Oc4nnccc4C(C)C)CC3)[nH]n2)n(C)n1 [Example 627],≤ 100 nM
24,COCc1cc(C(=O)Nc2cc([C@@H]3CC[C@H](Oc4cn[nH]c4C(C)C)C3)[nH]n2)n(C)n1 [Example 628],250 to 1000 nM
